From the supplement of paper PMC6045584
± gives the standard deviation of the averaged measurements.

Assays:
CANERTINIB [1] = compound: T1, C=CC(=O)Nc1cc2c(Nc3ccc(F)c(Cl)c3)ncnc2cc1OCCCN1CCOCC1 [CANERTINIB]; assay: surviving fraction relative to DMSO-only wells; higher = less growth inhibition; details: exposure time: 5 days
Method in brief: (§1)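 Each tumour cell line was screened three times, and only lines with replicate Pearson r >0.7 and median Z' >0.3 were kept. Cells in log phase were seeded at 250–500 per well in 384-well plates, left 24 hours, then exposed continuously for five days to inhibitors at 0.5, 1, 5, 10, 50, 100, 500 and 1000 nM. Viability was read as CellTiter-Glo luminescence, with surviving fraction normalised to the median of DMSO-only wells.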

SNX-5422 [2] = compound: T2, CC1(C)CC(=O)c2c(C(F)(F)F)nn(-c3ccc(C(N)=O)c(N[C@H]4CC[C@H](OC(=O)CN)CC4)c3)c2C1 [SNX-5422]; assay: as above; details: exposure time: 5 days
Method in brief: as §1

SAPACITABINE [3] = compound: T3, CCCCCCCCCCCCCCCC(=O)Nc1ccn([C@@H]2O[C@H](CO)[C@@H](O)[C@@H]2C#N)c(=O)n1 [SAPACITABINE]; assay: as above; details: exposure time: 5 days
Method in brief: as §1

BI-2536 [4] = compound: T4, CC[C@@H]1C(=O)N(C)c2cnc(Nc3ccc(C(=O)NC4CCN(C)CC4)cc3OC)nc2N1C1CCCC1 [BI-2536]; assay: as above; details: exposure time: 5 days
Method in brief: as §1

AFATINIB [5] = compound: T5, CN(C)C/C=C/C(=O)Nc1cc2c(Nc3ccc(F)c(Cl)c3)ncnc2cc1O[C@H]1CCOC1 [AFATINIB]; assay: as above; details: exposure time: 5 days
Method in brief: as §1

MDV3100 [6] = compound: T6, CNC(=O)c1ccc(N2C(=S)N(c3ccc(C#N)c(C(F)(F)F)c3)C(=O)C2(C)C)cc1F [MDV3100]; assay: as above; details: exposure time: 5 days
Method in brief: as §1

[7] = compound: Cn1cc(C2=Nc3cc(NC(=O)C(N)C4CCCCC4)cc4c3C2=CNNC4=O)cn1; assay: as above; details: exposure time: 5 days
Method in brief: as §1

TIOGUANINE [8] = compound: T7, Nc1nc2[nH]cnc2c(=S)[nH]1 [TIOGUANINE]; assay: as above; details: exposure time: 5 days
Method in brief: as §1

CANERTINIB [9] = compound: T1, CANERTINIB; assay: area under dose-response curve of surviving fraction (unscaled, Aref=0) (surviving fraction x log10(nM)); higher = more resistant; details: exposure time: 5 days; dose range 0.5-1000 nM
Method in brief: (§2)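 Inhibitor was applied to tumour cell lines at eight concentrations (0.5 to 1000 nM) for five days in 384-well plates. Luminescence from CellTiter-Glo, scaled to DMSO-only wells, gave surviving fractions in three screens per line, and these were fitted by 3-parameter logistic regression with the drc R package. The area under the curve is an unscaled activity area. Aref was 0, and dose was on a log10 scale.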

SNX-5422 [10] = compound: T2, SNX-5422; assay: as above; details: exposure time: 5 days; dose range 0.5-1000 nM
Method in brief: as §2

SAPACITABINE [11] = compound: T3, SAPACITABINE; assay: as above; details: exposure time: 5 days; dose range 0.5-1000 nM
Method in brief: as §2

BI-2536 [12] = compound: T4, BI-2536; assay: as above; details: exposure time: 5 days; dose range 0.5-1000 nM
Method in brief: as §2

AFATINIB [13] = compound: T5, AFATINIB; assay: as above; details: exposure time: 5 days; dose range 0.5-1000 nM
Method in brief: as §2

MDV3100 [14] = compound: T6, MDV3100; assay: as above; details: exposure time: 5 days; dose range 0.5-1000 nM
Method in brief: as §2

[15] = compound: Cn1cc(C2=Nc3cc(NC(=O)C(N)C4CCCCC4)cc4c3C2=CNNC4=O)cn1; assay: as above; details: exposure time: 5 days; dose range 0.5-1000 nM
Method in brief: as §2

TIOGUANINE [16] = compound: T7, TIOGUANINE; assay: as above; details: exposure time: 5 days; dose range 0.5-1000 nM
Method in brief: as §2

Test System: NY BONE
- surviving fraction (CANERTINIB [1]; 0.5 nM): 0.892 ± 0.042
- surviving fraction (CANERTINIB [1]; 1 nM): 0.905 ± 0.031
- surviving fraction (CANERTINIB [1]; 5 nM): 0.998 ± 0.027
- surviving fraction (CANERTINIB [1]; 10 nM): 0.956 ± 0.028
- surviving fraction (CANERTINIB [1]; 50 nM): 0.965 ± 0.052
- surviving fraction (CANERTINIB [1]; 100 nM): 0.955 ± 0.01
- surviving fraction (CANERTINIB [1]; 500 nM): 0.825 ± 0.034
- surviving fraction (CANERTINIB [1]; 1000 nM): 0.69 ± 0.009
- surviving fraction (SNX-5422 [2]; 0.5 nM): 0.9907 ± 0.0074
- surviving fraction (SNX-5422 [2]; 1 nM): 1.01 ± 0.04
- surviving fraction (SNX-5422 [2]; 5 nM): 1.05 ± 0.045
- surviving fraction (SNX-5422 [2]; 10 nM): 1.03 ± 0.047
- surviving fraction (SNX-5422 [2]; 50 nM): 0.086 ± 0.0061
- surviving fraction (SNX-5422 [2]; 100 nM): 0.128 ± 0.012
- surviving fraction (SNX-5422 [2]; 500 nM): 0.0563 ± 0.0047
- surviving fraction (SNX-5422 [2]; 1000 nM): 0.054 ± 0.0078
- surviving fraction (SAPACITABINE [3]; 0.5 nM): 0.923 ± 0.043
- surviving fraction (SAPACITABINE [3]; 1 nM): 0.872 ± 0.042
- surviving fraction (SAPACITABINE [3]; 5 nM): 0.911 ± 0.024
- surviving fraction (SAPACITABINE [3]; 10 nM): 0.812 ± 0.026
- surviving fraction (SAPACITABINE [3]; 50 nM): 0.368 ± 0.02
- surviving fraction (SAPACITABINE [3]; 100 nM): 0.262 ± 0.011
- surviving fraction (SAPACITABINE [3]; 500 nM): 0.133 ± 0.0087
- surviving fraction (SAPACITABINE [3]; 1000 nM): 0.147 ± 0.0076
- surviving fraction (BI-2536 [4]; 0.5 nM): 0.988 ± 0.025
- surviving fraction (BI-2536 [4]; 1 nM): 0.851 ± 0.01
- surviving fraction (BI-2536 [4]; 5 nM): 0.051 ± 0.0035
- surviving fraction (BI-2536 [4]; 10 nM): 0.0633 ± 0.0051
- surviving fraction (BI-2536 [4]; 50 nM): 0.17 ± 0.023
- surviving fraction (BI-2536 [4]; 100 nM): 0.305 ± 0.0079
- surviving fraction (BI-2536 [4]; 500 nM): 0.372 ± 0.0087
- surviving fraction (BI-2536 [4]; 1000 nM): 0.298 ± 0.03
- surviving fraction (AFATINIB [5]; 0.5 nM): 0.991 ± 0.051
- surviving fraction (AFATINIB [5]; 1 nM): 0.983 ± 0.013
- surviving fraction (AFATINIB [5]; 5 nM): 1.02 ± 0.062
- surviving fraction (AFATINIB [5]; 10 nM): 1.038 ± 0.008
- surviving fraction (AFATINIB [5]; 50 nM): 1.03 ± 0.053
- surviving fraction (AFATINIB [5]; 100 nM): 0.996 ± 0.017
- surviving fraction (AFATINIB [5]; 500 nM): 0.683 ± 0.029
- surviving fraction (AFATINIB [5]; 1000 nM): 0.392 ± 0.017
- surviving fraction (MDV3100 [6]; 0.5 nM): 0.886 ± 0.021
- surviving fraction (MDV3100 [6]; 1 nM): 0.887 ± 0.029
- surviving fraction (MDV3100 [6]; 5 nM): 0.943 ± 0.035
- surviving fraction (MDV3100 [6]; 10 nM): 0.933 ± 0.023
- surviving fraction (MDV3100 [6]; 50 nM): 0.93 ± 0.0093
- surviving fraction (MDV3100 [6]; 100 nM): 1.01 ± 0.022
- surviving fraction (MDV3100 [6]; 500 nM): 0.924 ± 0.026
- surviving fraction (MDV3100 [6]; 1000 nM): 0.884 ± 0.039
- surviving fraction ([7]; 0.5 nM): 1 ± 0.015
- surviving fraction ([7]; 1 nM): 0.984 ± 0.0061
- surviving fraction ([7]; 5 nM): 1.03 ± 0.024
- surviving fraction ([7]; 10 nM): 0.95 ± 0.042
- surviving fraction ([7]; 50 nM): 0.458 ± 0.014
- surviving fraction ([7]; 100 nM): 0.182 ± 0.014
- surviving fraction ([7]; 500 nM): 0.0577 ± 0.0055
- surviving fraction ([7]; 1000 nM): 0.0377 ± 0.0055
- surviving fraction (TIOGUANINE [8]; 0.5 nM): 0.936 ± 0.013
- surviving fraction (TIOGUANINE [8]; 1 nM): 0.955 ± 0.017
- surviving fraction (TIOGUANINE [8]; 5 nM): 1.01 ± 0.022
- surviving fraction (TIOGUANINE [8]; 10 nM): 0.972 ± 0.015
- surviving fraction (TIOGUANINE [8]; 50 nM): 1.02 ± 0.049
- surviving fraction (TIOGUANINE [8]; 100 nM): 1.01 ± 0.029
- surviving fraction (TIOGUANINE [8]; 500 nM): 0.946 ± 0.025
- surviving fraction (TIOGUANINE [8]; 1000 nM): 0.902 ± 0.039
- area under dose-response curve (CANERTINIB [9]): 3.13
- area under dose-response curve (SNX-5422 [10]): 1.89
- area under dose-response curve (SAPACITABINE [11]): 1.91
- area under dose-response curve (BI-2536 [12]): 0.972
- area under dose-response curve (AFATINIB [13]): 3.1
- area under dose-response curve (MDV3100 [14]): 3.06
- area under dose-response curve [15]: 2.01
- area under dose-response curve (TIOGUANINE [16]): 3.27
